{"source": "patent US11633416B1", "about": "“Oral formulations of CD73 compounds” (ARCUS BIOSCIENCES, INC., priority 2020, dated 2023)", "key": {"[1]": {"assay": "Oral bioavailability in male Sprague-Dawley rats, compound alone or with excipient in water pH 8 by oral gavage; plasma by LC-MS/MS", "type": "in vivo", "conditions": "for Bioavailability (% F): oral gavage", "description": "The influence of different excipients on the bioavailability of Compound 2 was investigated in Sprague Dawley rats. The excipients tested were Solutol HS 15, soy L-α-phosphatidylcholine, trisodium citrate, sodium caprate, disodium EDTA, and sodium phytate. Generally, 10-30 mg of Compound 2 and the indicated quantity (Table 5) of excipient was combined and dissolved in 5 mL water. The pH was adjusted to a pH of 8 using HCl or NaOH as needed.\nMale Sprague-Dawley rats, weighing between 0.27 to 0.32 kg, were fasted overnight prior to dose administration through approximately 4 hours post-dose. Compound 2 was administered orally by orogastric gavage at 5 mL/kg. Blood samples were collected via femoral vein at designated time points, and centrifuged to obtain plasma.\n(§1) Plasma samples obtained at each time point from the subjects were prepared by protein precipitation. An aliquot of 50 μL sample was added with 150 μL acetonitrile containing an internal standard ([(2R,3S,4R,5R)-5-[2-chloro-6-(cyclopentylmethylamino)purin-9-yl]-3,4-dihydroxyoxolan-2-yl]methoxymethylphosphonic acid, 200 ng/mL in Acetonitrile). The mixture was vortexed for 15 min and then centrifuged at 4500 rpm for 15 min at 4° C. (Sorvall Legend XTR centrifuge, Thermo Scientific, Langenselbold, Germany). 80 μL of the resulting supernatant was transferred into a new plate and mixed with 160 μL water followed by LC-MS/MS analysis.\n• API 4000 mass spectrometer (Applied Biosystems, Foster City, Calif.) • Shimadzu Nexera X^2 UHPLC System (Shimadzu Scientific Instruments, Canby, Oreg.) Column: SHISEIDO CAPCELL PAK INERT ADME S3 (2.00 mm×50 mm, Part No. 79001) Mobile Phase A: 8.6 mM Triethylamine, 100 mM HFIP (1,1 1,3,3,3-Hexafluoro-2-propanol) in Water Mobile Phase B: 8.6 mM Triethylamine, and 100 mM HFIP in [Acetonitrile:water (95:5, v/v) Needle wash (weak & strong): Acetone: MeCN: Water (80:20:20, v/v/v) Flow Rate: 0.50 mL/min\n• Ionization Mode: Electrospray (ESI) • Detection Mode: Negative MRM (Q1/Q3 transitions: m/z 562.2/157.0 for Compound 2; m/z 584.0/157.0 for Internal Standard)"}, "[2]": {"assay": "Oral exposure in cynomolgus monkeys, compound alone or with excipient in capsules; plasma by LC-MS/MS", "type": "in vivo", "conditions": "for AUC(0-inf) / Cmax: male, cynomolgus monkey, plasma, po, 50 mg, enteric capsules; for Cmax: read-out: Cmax", "description": "The influence of different excipients on the bioavailability of Compound (Ia), Compound 2 and Compound 3 in cynomolgus monkeys was investigated. The excipients tested were sodium phytate, sodium citrate, sodium EDTA, cyclodextrin, sodium taurocholate, sodium polystyrene sulfate, sodium caprate, sodium phosphate, carbomer 971P and palmitoyl carnitine chloride. Generally, an appropriate quantity (as indicated in Table 1) of Compound (Ia), Compound 2 or Compound 3 and an excipient were mixed to homogeneity and transferred to capsules for dosing. In one example, Compound (Ia) (500 mg assay, 1.063 correction factor applied for to account for purity) and 2.75 g of sodium phytate (Sigma) were combined in a mortar and pestle. The mixture was ground to homogeneity then 530 mg of the white powder was transferred to enteric capsules (Size 0) prior to dosing.\n[…] Compound (Ia), Compound 2 or Compound 3, either alone, or with excipient, in an enteric capsule was administered via an oral pet piller. Blood samples were collected from a peripheral vessel at designated time points, and centrifuged to obtain plasma.\nas §1, with “([[[(2R,3S,4R,5R)-5-[6-chloro-4-[[(1S)-2,2,2-trideuterio-1-(2-fluorophenyl)ethyl]amino]pyrazolo[3,4-b]pyridin-1-yl]-3,4-dihydroxyoxolan-2-yl]-dideuteriomethoxy]-hydroxyphosphoryl]methylphosphonic” for “([(2R,3S,4R,5R)-5-[2-chloro-6-(cyclopentylmethylamino)purin-9-yl]-3,4-dihydroxyoxolan-2-yl]methoxymethylphosphonic”\n• API 4000 mass spectrometer (Applied Biosystems, Foster City, Calif.) • Shimadzu Nexera X^2 UHPLC System (Shimadzu Scientific Instruments, Canby, Oreg.) Column: SHISEIDO CAPCELL PAK INERT ADME S3 (2.00 mm×50 mm, Part No. 79001) Mobile Phase A: 8.6 mM Triethylamine, 100 mM HFIP (1,1,1,3,3,3-Hexafluoro-2-propanol) in Water Mobile Phase B: 8.6 mM Triethylamine, and 100 mM HFIP in [Acetonitrile:water (95:5, v/v) Needle wash (weak & strong): Acetone:MeCN:Water (80:20:20, v/v/v) Flow Rate: 0.50 mL/min HPLC Gradient:\n• Ionization Mode: Electrospray (ESI) • Detection Mode: Negative MRM (Q1/Q3 transitions: m/z 579.0/157.0 for Compound (Ia) or Compound 3; m/z 584.0/157.0 for Internal Standard); (Q1/Q3 transitions m/z 562.2/157.0 for Compound 2; m/z 584.0/157.0 for Internal Standard)"}, "[3]": {"conditions": "Table 3: dose 50 mg, dosed with 195 mg trisodium citrate and 3 mg SDS"}, "[4]": {"conditions": "Table 4: dose 50 mg, dosed with 275 mg sodium phytate"}}, "note": "Like-named read-outs stand apart in the source and are kept apart here.", "data": [{"smiles": "C[C@H](Nc1nc(Cl)nc2c1cnn2[C@@H]1O[C@H](COP(=O)(O)CP(=O)(O)O)[C@@H](O)[C@H]1O)c1ccccc1", "note": "[Compound 2]", "values": [{"measurement": "Oral bioavailability using calcium chelating excipients", "setting": "[1]; SD rats, 10-30 mg/kg + excipient in water at pH 8 via oral gavage, 5 mL/kg", "value": "Improved"}, {"measurement": "Bioavailability (% F)", "setting": "[1]; 10 mg/kg, excipient: Sodium phytate (Sigma) 165 mg/SDS 2 mg", "value": 2.0, "unit": "% F"}, {"measurement": "Bioavailability (% F)", "setting": "[1]; 10 mg/kg, excipient: Sodium phytate (Sigma, ≥5 mol sodium/mol) 165 mg", "value": 2.3, "unit": "% F"}, {"measurement": "Bioavailability (% F)", "setting": "[1]; 10 mg/kg, excipient: Trisodium citrate 64.5 mg/sodium caprate 49 mg", "value": 0.23, "unit": "% F"}, {"measurement": "Bioavailability (% F)", "setting": "[1]; 30 mg/kg, excipient (mg/kg): Solutol HS 15, 1,500", "value": 0.015, "unit": "% F"}, {"measurement": "Bioavailability (% F)", "setting": "[1]; 30 mg/kg, excipient: Disodium EDTA 5 mg", "value": 0.60, "unit": "% F"}, {"measurement": "Bioavailability (% F)", "setting": "[1]; 30 mg/kg, excipient: Disodium EDTA 20 mg", "value": 2.8, "unit": "% F"}, {"measurement": "Bioavailability (% F)", "setting": "[1]; 30 mg/kg, excipient: None", "value": 0.03, "unit": "% F"}, {"measurement": "Bioavailability (% F)", "setting": "[1]; 30 mg/kg, excipient: Soy L-α-phosphatidylcholine 150 mg", "value": 0.07, "unit": "% F"}, {"measurement": "Bioavailability (% F)", "setting": "[1]; 30 mg/kg, excipient: Trisodium citrate 20 mg", "value": 0.10, "unit": "% F"}, {"measurement": "Bioavailability (% F)", "setting": "[1]; 30 mg/kg, excipient: Trisodium citrate 64.5 mg", "value": 0.60, "unit": "% F"}, {"measurement": "Oral bioavailability using calcium chelating excipients", "setting": "[2]; cynomolgus monkeys, capsules, versus compound alone", "value": "Improved"}, {"measurement": "AUC(0-inf)", "setting": "[2]; [3]", "value": 67100, "unit": "ng·h/mL"}, {"measurement": "Cmax", "setting": "[2]; [3]", "value": 2530, "unit": "ng/mL"}, {"measurement": "AUC(0-inf)", "setting": "[2]; [4]", "value": 105000, "unit": "ng·h/mL"}, {"measurement": "Cmax", "setting": "[2]; [4]", "value": 2320, "unit": "ng/mL"}]}]}
